Among the data in the RepoRT retention time repository are LC retention time values, retold here.

The data set in a line: Waters ACQUITY UPLC BEH C18, 100 × 2.1 mm, 1.7 µm, 40 °C, 0.3 to 0.4 mL/min, estimated dead time 0.63 min; A: water + 0.1% formic acid; B: methanol + 0.1% formic acid; gradient (min/%B) 0/0.5 0.1/0.5 10/80 10.1/99.5 12/99.5. Particulars: stereoisomer not certain.
In the case of `O=C1NCCc2c1[nH]c1ccccc21`, the LC retention time was 5.53 min.

Take `COc1cc(C=CC(=O)NC=Cc2ccc(O)cc2)ccc1O`: the LC retention time is 4.3 min.

As for `CC1CNC2C(C)C3C(CC4C5CCC6CC(OC7OC(CO)C(OC8OC(CO)C(O)C(OC9OCC(O)C(O)C9O)C8OC8OC(CO)C(O)C(O)C8O)C(O)C7O)CCC6(C)C5CCC43C)OC2(O)C1` (centres undefined), the LC retention time was 4.02 min.

For the compound `CC(CS)C(=O)N1CCCC1C(=O)O` (centres undefined), the LC retention time is 4.05 min.

Take `COc1cccc(C=CC(=O)O)c1`: the LC retention time was 6.03 min.

Consider `O=C(O)CC(=O)OCC1OC(Oc2c(-c3ccc(O)cc3)oc3cc(OC4OC(CO)C(O)C(O)C4O)cc(O)c3c2=O)C(O)C(O)C1O` (centres undefined), for which the LC retention time was 3.36 min.

As for `COc1ccc(C2CC(=O)c3c(O)cc(OC4OC(CO)C(O)C(O)C4OC4OC(C)C(O)C(O)C4O)cc3O2)cc1` (centres undefined), the LC retention time is 5.42 min.

`O=C(O)C1OC(OC2C(Oc3cc(O)c4c(=O)cc(-c5ccc(O)cc5)oc4c3)OC(C(=O)O)C(O)C2O)C(O)C(O)C1O` (centres undefined): the LC retention time is 4.05 min.

Consider `O=C1CC(c2ccccc2)Oc2ccccc21` (centres undefined), for which the LC retention time was 8.5 min.

As for `CC=C1CC(C)C(C)(O)C(=O)OCC2=CCN3CCC(OC1=O)C23` (centres undefined), the LC retention time is 3.8 min.

For the compound `CC(O)(CC(=O)O)CC(=O)OCC1OC(Oc2c(-c3ccc(O)cc3)oc3cc(OC4OC(CO)C(O)C(O)C4O)cc(O)c3c2=O)C(O)C(O)C1O` (centres undefined), the LC retention time was 3.34 min.

As to `CC(C)=CCCC(C)(O)C1CCC2(C)C1C(O)CC1C3(C)CCC(OC4OC(CO)C(O)C(O)C4O)C(C)(C)C3CCC12C` (centres undefined), the LC retention time was 9.84 min.

As to `O=c1c(OC2OC(CO)C(O)C(O)C2O)c(-c2ccc(O)c(O)c2)oc2cc(O)cc(O)c12` (centres undefined), the LC retention time was 4.03 min.

For the compound `CC(C)C(O)(C(=O)OCC1CCN2CCCC12)C(C)O` (centres undefined), the LC retention time is 3.05 min.

As for `COc1cc(C=CC=O)cc(OC)c1O`, the LC retention time is 4.73 min.

As to `OCC1OC(Oc2cc3c(O)cc(O)cc3[o+]c2-c2ccc(O)cc2)C(O)C(O)C1O` (centres undefined), the LC retention time was 3.12 min.

With `COc1ccc(-c2cc(=O)c3c(O)cc(OC4OC(C(=O)O)C(O)C(O)C4O)cc3o2)cc1O` (centres undefined), the LC retention time is 4.6 min.

Turning to `COc1cc(-c2oc3cc(OC4OC(CO)C(O)C(O)C4O)cc(O)c3c(=O)c2OC2OC(CO)C(O)C(O)C2O)cc(OC2OC(CO)C(O)C(O)C2O)c1O` (centres undefined), the LC retention time is 2.8 min.

For the compound `CC(C)=CCc1c(O)ccc2c1OCC(c1ccc(O)cc1O)C2=O` (centres undefined), the LC retention time was 7.51 min.

With `CC(C)=CCc1c(O)cc(O)c2c1OCC(c1ccc(O)cc1O)C2=O` (centres undefined), the LC retention time is 7.04 min.

In the case of `CC(C)=CCc1cc(C2Oc3c(ccc(O)c3CC=C(C)C)C(=O)C2O)ccc1O` (centres undefined), the LC retention time was 10.2 min.

`Cc1c2ccncc2c(C)c2c1[nH]c1ccccc12`: the LC retention time was 4.93 min.

In the case of `CC(C)=CCc1c(O)ccc2c1OC(c1ccc(O)cc1)CC2=O` (centres undefined), the LC retention time was 8.93 min.

`O=C(O)C=C(CC(=O)O)C(=O)O`: the LC retention time was 1.61 min.

On to `O=C1CCCC2C3CCCN4CCCC(CN12)C34` (centres undefined), for which the LC retention time was 2.26 min.

As for `COc1ccc2c(c1)OC(OC1OC(CO)C(O)C(O)C1O)C(=O)N2OC` (centres undefined), the LC retention time was 4.1 min.

Turning to `COc1ccc(-c2coc3cc(OC4OC(CO)C(O)C(O)C4O)c(OC)cc3c2=O)cc1` (centres undefined), the LC retention time was 5.05 min.

Turning to `CC(C)=CCCC(C)(OC1OC(COC2OC(CO)C(O)C2O)C(O)C(O)C1O)C1CCC2(C)C1C(O)CC1C3(C)CCC(OC4OC(CO)C(O)C(O)C4OC4OC(CO)C(O)C(O)C4O)C(C)(C)C3CCC12C` (centres undefined), the LC retention time was 6.01 min.

As for `O=C(O)CC(=O)OCC1OC(Oc2c(-c3cc(O)c(O)cc3O)oc3cc(O)cc(O)c3c2=O)C(O)C(O)C1O` (centres undefined), the LC retention time is 3.88 min.

As to `COc1ccc(C(=O)OC2CC3CCC(C2)N3C)cc1OC` (centres undefined), the LC retention time was 3.95 min.

For `CS(=O)CCCCCCCCC#N` (centres undefined), the LC retention time was 3.03 min.

Turning to `OCC1OC(Oc2ccc(O)cc2)C(O)C(O)C1O` (centres undefined), the LC retention time was 1.88 min.

For the compound `O=c1c(-c2ccc(O)cc2)coc2cc(O)ccc12`, the LC retention time was 5.15 min.

Regarding `COCC12CN(C)C3C4C(OC)C1C3(C(OC)CC2O)C1CC2(O)C(OC)C(O)C4(OC(C)=O)C1C2OC(=O)c1ccccc1` (centres undefined), the LC retention time is 5.61 min.

On to `O=C(O)C1OC(Oc2c(-c3ccc(O)cc3)oc3cc(O)cc(O)c3c2=O)C(O)C(O)C1O` (centres undefined), for which the LC retention time was 4.34 min.

On to `O=c1c(-c2ccc(O)c(O)c2)coc2cc(O)ccc12`, for which the LC retention time was 4.63 min.

For the compound `CC(C)=CCCC(C)(O)C1CCC2(C)C1C(O)CC1C3(C)CCC(O)C(C)(C)C3C(OC3OC(CO)C(O)C(O)C3OC3OC(C)C(O)C(O)C3O)CC12C` (centres undefined), the LC retention time is 6.25 min.

Turning to `CC(C)=CCc1cc(C2CC(=O)c3c(O)cc(O)cc3O2)ccc1O` (centres undefined), the LC retention time is 8.11 min.

Turning to `O=c1cc(-c2ccc(O)cc2)oc2cc(O)c(C3OCC(O)C(O)C3OC3OC(CO)C(O)C(O)C3O)c(O)c12` (centres undefined), the LC retention time was 4.21 min.

As to `COC1C(O)C(OC2C(OC3C(OC4CCC5(C)C(CCC6(C)C5CC=C5C7CC(C)(C)CC(O)C7(C)CCC56C)C4(C)CO)OC(C(=O)O)C(O)C3O)OC(C(=O)O)C(O)C2O)OC(CO)C1OC(C)=O` (centres undefined), the LC retention time was 7.33 min.

`CC(C)=CCc1c(O)cc2c(c1O)C(=O)CC(c1ccccc1)O2` (centres undefined): the LC retention time was 7.58 min.

Turning to `CC(=O)OCC1OC(OC2C(O)COC(OC3C(O)C(C)(C)CC4C5=CCC6C7(C)CCC(OC8OC(C(=O)O)C(O)C(O)C8OC8OC(CO)C(O)C(O)C8OC8OC(CO)C(O)C(O)C8O)C(C)(CO)C7CCC6(C)C5(C)CCC43C)C2O)C(OC(C)=O)C(OC(C)=O)C1OC(C)=O` (centres undefined), the LC retention time was 6.26 min.

On to `C1CCN2CC3CC(CN4CCCCC34)C2C1` (centres undefined), for which the LC retention time is 2.33 min.

For the compound `COc1cc(-c2[o+]c3cc(O)cc(OC4OC(CO)C(O)C(O)C4O)c3cc2OC2OC(CO)C(O)C(O)C2O)ccc1O` (centres undefined), the LC retention time is 2.79 min.

On to `CC(C)C(N)C(=O)NC(C(=O)O)C(C)C` (centres undefined), for which the LC retention time was 2.15 min.

For the compound `CC1OC(Oc2cc(O)c3c(=O)c(OC4OC(CO)C(O)C(O)C4OC4OC(CO)C(O)C(O)C4O)c(-c4ccc(O)c(O)c4)oc3c2)C(O)C(O)C1O` (centres undefined), the LC retention time was 2.95 min.

Regarding `COc1cccc(-c2oc3cc(OC)ccc3c(=O)c2O)c1`, the LC retention time is 6.75 min.

Take `CNC(=O)Oc1ccc2c(c1)C1(C)CCN(C)C1N2C` (centres undefined): the LC retention time is 3.31 min.

On to `CC1OC(OC2C(OC3C(OC4CCC5(C)C(CCC6(C)C5CC=C5C7CC(C)(C)CC(=O)C7(C)CCC56C)C4(C)CO)OC(C(=O)O)C(O)C3O)OCC(O)C2O)C(O)C(O)C1O` (centres undefined), for which the LC retention time is 7.85 min.

In the case of `Oc1cc(O)c2c(c1)OC(c1ccc(O)c(O)c1)C(O)C2c1c(O)cc(O)c2c1OC(c1ccc(O)c(O)c1)C(O)C2c1c(O)cc(O)c2c1OC(c1ccc(O)c(O)c1)C(O)C2` (centres undefined), the LC retention time is 3.46 min.

Consider `NCCCCNC(=O)C=Cc1ccc(O)c(O)c1`, for which the LC retention time was 2.22 min.

`CCCC1CCCCN1` (centres undefined): the LC retention time was 2.78 min.

Take `CC(C)=CCCC(C)(OC1OC(CO)C(O)C(O)C1O)C1CCC2(C)C1C(O)CC1C3(C)CCC(OC4OC(CO)C(O)C(O)C4O)C(C)(C)C3CCC12C` (centres undefined): the LC retention time is 7.66 min.

On to `CC(C)(CO)C(O)C(=O)NCCC(=O)O` (centres undefined), for which the LC retention time is 2.48 min.

Regarding `CC1CCC2(NC1)OC1CC3C4CC=C5CC(OC6OC(CO)C(OC7OC(CO)C(O)C(OC8OCC(O)C(O)C8O)C7OC7OC(CO)C(O)C(O)C7O)C(O)C6O)CCC5(C)C4CCC3(C)C1C2C` (centres undefined), the LC retention time is 4.72 min.

For `CC(C)C(NC(=O)C(N)Cc1ccccc1)C(=O)O` (centres undefined), the LC retention time was 2.98 min.

Turning to `CS(=O)CCCCCCCCC(=O)O` (centres undefined), the LC retention time was 4.43 min.

On to `CCC1(O)C(=O)OCc2c1cc1n(c2=O)Cc2cc3ccccc3nc2-1` (centres undefined), for which the LC retention time is 5.4 min.

`O=C(O)C(Cc1ccccc1)NC(=O)C1CCCN1` (centres undefined): the LC retention time was 2.99 min.

With `COc1cc(-c2[o+]c3cc(O)cc(O)c3cc2OC2OC(CO)C(O)C(O)C2O)cc(O)c1O` (centres undefined), the LC retention time was 3.21 min.

As for `CC1OC(OC2C(c3c(O)cc(O)c4c(=O)cc(-c5ccc(O)cc5)oc34)OC(CO)C(O)C2O)C(O)C(O)C1O` (centres undefined), the LC retention time is 4.61 min.

Consider `OCC1OC(Oc2cc3c(O)cc(O)cc3[o+]c2-c2ccc(O)c(O)c2)C(O)C(O)C1O` (centres undefined), for which the LC retention time was 2.91 min.

Consider `O=c1[nH]c(=O)c2ncn(C3OC(CO)C(O)C3O)c2[nH]1` (centres undefined), for which the LC retention time was 2.07 min.

For the compound `C=CC1C(OC2OC(CO)C(O)C(O)C2O)OC=C2C(=O)N3Cc4cc5ccccc5nc4C3CC21` (centres undefined), the LC retention time was 5.27 min.

Regarding `CN1c2ccccc2C(=O)N2CCc3c([nH]c4ccccc34)C21` (centres undefined), the LC retention time was 7.77 min.

Regarding `CCCCCC(O)CC(=O)CCc1ccc(O)c(OC)c1` (centres undefined), the LC retention time was 7.45 min.

Consider `COc1cc(-c2[o+]c3cc(O)cc(O)c3cc2OC2OC(CO)C(O)C(O)C2O)cc(OC)c1O` (centres undefined), for which the LC retention time is 3.19 min.

As to `O=C(CCc1ccccc1)c1c(O)cc(O)cc1OC1OC(CO)C(O)C(O)C1O` (centres undefined), the LC retention time was 4.85 min.

As for `COc1cc(CC2COC(=O)C2Cc2ccc(O)c(OC)c2)ccc1O` (centres undefined), the LC retention time is 5.96 min.

Take `COc1ccccc1C=CC(=O)O`: the LC retention time was 6.12 min.

Turning to `CN1Cc2c(ccc3c2OCO3)C2C(O)Cc3cc4c(cc3C21)OCO4` (centres undefined), the LC retention time is 4.53 min.

As for `CCC(C)C(=O)OC1C(O)C2C(CN3CC(C)CCC3C2(C)O)C2CC34OC5(O)C(OC(=O)C(C)(O)C(C)OC(C)=O)CCC3(C)C5CC(O)C4C21O` (centres undefined), the LC retention time is 5.04 min.

With `CCC(C)C(NC(=O)C(N)C(C)C)C(=O)O` (centres undefined), the LC retention time is 2.88 min.

On to `COc1cc(C=CC(=O)O)ccc1O`, for which the LC retention time is 4.24 min.
